Data published in patent US20240408169A1 (priority 2023, published 2024).
*1 amine or outer side, *2 acyl side, *3 side chain or, on linkers, in order; H or OH if unused. Where a SMILES comes first, the peptide text is derived from it. Bridges are numbered along the chain shown (N, C = ends). [ ]: non-standard residue; d: D form. The star is where a group is joined. X198 = COC[C@H]1COCCN1c1ccc(-c2ccc(Cl)cc2C[C@@H](C(=O)[*:2])N(C)[*:1])cc1; X169 = CN([C@@H](Cc1cc(Cl)ccc1-c1ccc(-c2cnn3c2COCC3)cc1)C(=O)[*:2])[*:1]; X179 = CN([C@@H](Cc1cc(Cl)ccc1-c1ccc(N2CCOCC2)c(C#N)c1)C(=O)[*:2])[*:1]; X191 = CN([C@@H](Cc1cc(Cl)ccc1-c1ccc(N2CCOCC2)c(F)c1F)C(=O)[*:2])[*:1]; X212 = CN1CCC(Oc2ccc(-c3ccc(Cl)cc3C[C@@H](C(=O)[*:2])N(C)[*:1])cn2)CC1; X145 = CN1CCN(c2ccc(-c3ccc(F)cc3C[C@@H](C(=O)[*:2])N(C)[*:1])cc2F)CC1; X140 = CN([C@@H](Cc1cc(Cl)ccc1-c1ccc(Oc2cccnc2)cc1)C(=O)[*:2])[*:1]; X186 = CN([C@@H](Cc1cc(Cl)ccc1-c1ccc(N2CCOCC2)cn1)C(=O)[*:2])[*:1]; NMehhhLys(Me) = CN([C@@H](CCCCCCCN(C)[*:3])C(=O)[*:2])[*:1]; X132 = CN([C@@H](Cc1cc(Cl)cc2ccoc12)C(=O)[*:2])[*:1]; cBuCO(3,3-F2-1-CF3) = O=C(C1(C(F)(F)F)CC(F)(F)C1)*; Pro(trans-4-F) = O=C(O)[C@@H]1C[C@@H](F)CN1; Gly(cPr) = N[C@H](C(=O)O)C1CC1

Columns and labels:
[1] = target: T1, CyclinB1/CDK1 (Homo sapiens, UniProt P14635); test: Fluorescence Polarization (FP) competitive binding assay, Cyclin B1/Cdk1; settings: 10 nM Cyclin B1/Cdk1, 2 nM FAM probe; average of 2-3 independent experiments; read-out: Cyclin B FP IC50;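 further: fluorescence polarization read after equilibration at room temperature, with IC50 taken from serially diluted dose-response curves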
T1 construct: purchased Eurofins, discovery 14-450

[2] = test system: OVCAR3 cells; test: MTT proliferation assay, OVCAR3; assay type: cell-based; settings: 5 days compound exposure, 1:3 serial dilution starting at 10 μM;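 further: compound given as an 8- or 10-point series, one day after plating, with exposure covering roughly 3-4 cell doublings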
[3] = target: T2, CyclinE1/CDK2 (Homo sapiens, UniProt P24864); test: Fluorescence Polarization (FP) competitive binding assay, Cyclin E1/Cdk2; settings: 10 nM Cyclin E1/Cdk2, 2 nM FAM probe; average of 2-3 independent experiments; read-out: Cyclin E FP IC50;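 further: readings taken after two-hour equilibration at room temperature in HEPES buffer with NaCl, DTT, NP-40 and BSA, IC50 fitted from eight-concentration serial dilution series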
T2 construct: purchased Eurofins, discovery 14-475

[4] = target: T3, CyclinA2/CDK2 (Homo sapiens, UniProt P20248); test: Fluorescence Polarization (FP) competitive binding assay, Cyclin A2/Cdk2; settings: 8 nM Cyclin A2/Cdk2, 2 nM FAM probe; average of 2-3 independent experiments; read-out: Cyclin A FP IC50;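 further: plates equilibrated two hours at room temperature before polarization reading, IC50 fitted from eight-concentration compound titration curves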
T3 construct: purchased CRELUX Protein Services

[5] = test system: NCI-H1048 cells; test: MTT proliferation assay, NCI-H1048; assay type: cell-based; settings: 5 days compound exposure, 1:3 serial dilution starting at 10 μM;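 further: Dose-response in 96-well plates over 8 or 10 concentration points, with exposure spanning 3-4 cell doublings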

SMILES	IC50 [1]	GI50 [2]	IC50 [3]	IC50 [4]	GI50 [5]
COC[C@H]1COCCN1c1ccc(-c2ccc(Cl)cc2C[C@H]2C(=O)N(C)CCCCCCC[C@H](N(C)C(=O)[C@@H](NC(=O)[C@@H]3C[C@@H](F)CN3C(=O)C3(C(F)(F)F)CC(F)(F)C3)C3CC3)C(=O)N[C@@H](CC(C)C)C(=O)N2C)cc1 [Example 373] ({cBuCO(3,3-F2-1-CF3)}-[Pro(trans-4-F)][Gly(cPr)][NMehhhLys(Me)]L[X198]; lactam 3-C)	20 nM	10 nM	480 nM	20 nM	10 nM
CC(C)C[C@@H]1NC(=O)[C@@H](N(C)C(=O)[C@@H](NC(=O)[C@@H]2C[C@@H](F)CN2C(=O)C2(C(F)(F)F)CC(F)(F)C2)C2CC2)CCCCCCCN(C)C(=O)[C@H](Cc2cc(Cl)ccc2-c2ccc(-c3cnn4c3COCC4)cc2)N(C)C1=O [Example 378] ({cBuCO(3,3-F2-1-CF3)}-[Pro(trans-4-F)][Gly(cPr)][NMehhhLys(Me)]L[X169]; lactam 3-C)	20 nM	20 nM	1120 nM	20 nM	10 nM
CC(C)C[C@@H]1NC(=O)[C@@H](N(C)C(=O)[C@@H](NC(=O)[C@@H]2C[C@@H](F)CN2C(=O)C2(C(F)(F)F)CC(F)(F)C2)C2CC2)CCCCCCCN(C)C(=O)[C@H](Cc2cc(Cl)ccc2-c2ccc(N3CCOCC3)c(C#N)c2)N(C)C1=O [Example 379] ({cBuCO(3,3-F2-1-CF3)}-[Pro(trans-4-F)][Gly(cPr)][NMehhhLys(Me)]L[X179]; lactam 3-C)	20 nM	20 nM	2730 nM	30 nM	30 nM
CC(C)C[C@@H]1NC(=O)[C@@H](N(C)C(=O)[C@@H](NC(=O)[C@@H]2C[C@@H](F)CN2C(=O)C2(C(F)(F)F)CC(F)(F)C2)C2CC2)CCCCCCCN(C)C(=O)[C@H](Cc2cc(Cl)ccc2-c2ccc(N3CCOCC3)cn2)N(C)C1=O [Example 382] ({cBuCO(3,3-F2-1-CF3)}-[Pro(trans-4-F)][Gly(cPr)][NMehhhLys(Me)]L[X186]; lactam 3-C)	20 nM	40 nM	2490 nM	40 nM	90 nM
CC(C)C[C@@H]1NC(=O)[C@@H](N(C)C(=O)[C@@H](NC(=O)[C@@H]2C[C@@H](F)CN2C(=O)C2(C(F)(F)F)CC(F)(F)C2)C2CC2)CCCCCCCN(C)C(=O)[C@H](Cc2cc(Cl)ccc2-c2ccc(Oc3cccnc3)cc2)N(C)C1=O [Example 385] ({cBuCO(3,3-F2-1-CF3)}-[Pro(trans-4-F)][Gly(cPr)][NMehhhLys(Me)]L[X140]; lactam 3-C)	20 nM	20 nM	1630 nM	20 nM	30 nM
CC(C)C[C@@H]1NC(=O)[C@@H](N(C)C(=O)[C@@H](NC(=O)[C@@H]2C[C@@H](F)CN2C(=O)C2(C(F)(F)F)CC(F)(F)C2)C2CC2)CCCCCCCN(C)C(=O)[C@H](Cc2cc(Cl)ccc2-c2ccc(N3CCOCC3)c(F)c2F)N(C)C1=O [Example 386] ({cBuCO(3,3-F2-1-CF3)}-[Pro(trans-4-F)][Gly(cPr)][NMehhhLys(Me)]L[X191]; lactam 3-C)	20 nM	20 nM	900 nM	20 nM	30 nM
CC(C)C[C@@H]1NC(=O)[C@@H](N(C)C(=O)[C@@H](NC(=O)[C@@H]2C[C@@H](F)CN2C(=O)C2(C(F)(F)F)CC(F)(F)C2)C2CC2)CCCCCCCN(C)C(=O)[C@H](Cc2cc(Cl)cc3ccoc23)N(C)C1=O [Example 394] ({cBuCO(3,3-F2-1-CF3)}-[Pro(trans-4-F)][Gly(cPr)][NMehhhLys(Me)]L[X132]; lactam 3-C)	20 nM	50 nM	500 nM	150 nM	90 nM
CC(C)C[C@@H]1NC(=O)[C@@H](N(C)C(=O)[C@@H](NC(=O)[C@@H]2C[C@@H](F)CN2C(=O)C2(C(F)(F)F)CC(F)(F)C2)C2CC2)CCCCCCCN(C)C(=O)[C@H](Cc2cc(Cl)ccc2-c2ccc(OC3CCN(C)CC3)nc2)N(C)C1=O [Example 396] ({cBuCO(3,3-F2-1-CF3)}-[Pro(trans-4-F)][Gly(cPr)][NMehhhLys(Me)]L[X212]; lactam 3-C)	20 nM	10 nM	2530 nM	30 nM	20 nM
CC(C)C[C@@H]1NC(=O)[C@@H](N(C)C(=O)[C@@H](NC(=O)[C@@H]2C[C@@H](F)CN2C(=O)C2(C(F)(F)F)CC(F)(F)C2)C2CC2)CCCCCCCN(C)C(=O)[C@H](Cc2cc(F)ccc2-c2ccc(N3CCN(C)CC3)c(F)c2)N(C)C1=O [Example 401] ({cBuCO(3,3-F2-1-CF3)}-[Pro(trans-4-F)][Gly(cPr)][NMehhhLys(Me)]L[X145]; lactam 3-C)	20 nM	10 nM	380 nM	20 nM	10 nM
